Measurements as given in ChEMBL document CHEMBL4507276 (2021).

What was measured:
[1] = tested on: Epidermal growth factor receptor (Homo sapiens), P00533 [L858R,T790M]; conditions: Compound concentration 1000.0 nM
[2] = molecular target: Casein kinase I isoform gamma-3 (Homo sapiens) (UniProt Q9Y6M4); conditions: Compound concentration 1000.0 nM
[3] = molecular target: Phosphatidylinositol 5-phosphate 4-kinase type-2 beta (Homo sapiens) (UniProt P78356); conditions: Compound concentration 1000.0 nM
Chain of Phosphatidylinositol 5-phosphate 4-kinase type-2 beta (Homo sapiens) (P78356 whole entry): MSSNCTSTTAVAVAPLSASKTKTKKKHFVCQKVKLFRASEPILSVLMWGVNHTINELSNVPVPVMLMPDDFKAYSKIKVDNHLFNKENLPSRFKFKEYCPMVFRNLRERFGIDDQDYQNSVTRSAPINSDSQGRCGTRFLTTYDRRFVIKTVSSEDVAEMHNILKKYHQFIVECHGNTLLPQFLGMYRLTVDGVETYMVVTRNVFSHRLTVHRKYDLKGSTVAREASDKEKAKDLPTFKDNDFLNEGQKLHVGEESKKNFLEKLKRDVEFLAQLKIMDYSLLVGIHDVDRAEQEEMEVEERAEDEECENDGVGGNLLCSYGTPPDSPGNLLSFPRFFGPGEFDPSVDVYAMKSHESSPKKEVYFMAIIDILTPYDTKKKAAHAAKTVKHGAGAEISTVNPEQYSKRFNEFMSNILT

Rattus norvegicus = species: Rattus norvegicus; conditions: Compound concentration 10.0 uM
[4] = molecular target: Activin receptor type-1-like (Homo sapiens) (UniProt P37023); conditions: Compound concentration 1000.0 nM
Chain of Activin receptor type-1-like (Homo sapiens) (P37023 whole entry): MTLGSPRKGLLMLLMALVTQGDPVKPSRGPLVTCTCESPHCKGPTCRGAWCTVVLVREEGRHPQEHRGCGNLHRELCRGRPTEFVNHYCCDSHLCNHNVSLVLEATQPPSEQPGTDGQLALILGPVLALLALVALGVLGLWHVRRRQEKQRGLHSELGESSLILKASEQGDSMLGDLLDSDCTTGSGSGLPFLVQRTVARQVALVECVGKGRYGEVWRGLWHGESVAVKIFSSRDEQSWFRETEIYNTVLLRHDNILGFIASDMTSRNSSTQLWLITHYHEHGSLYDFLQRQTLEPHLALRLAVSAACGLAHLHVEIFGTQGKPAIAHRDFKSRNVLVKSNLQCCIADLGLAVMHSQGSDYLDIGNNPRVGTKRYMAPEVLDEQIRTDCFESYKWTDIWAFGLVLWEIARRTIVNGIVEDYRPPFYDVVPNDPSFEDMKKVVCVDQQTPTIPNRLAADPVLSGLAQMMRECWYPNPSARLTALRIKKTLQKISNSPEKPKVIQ

[5] = molecular target: Testis-specific serine/threonine-protein kinase 1 (Homo sapiens) (UniProt Q9BXA7); conditions: Compound concentration 1000.0 nM
[6] = tested on: Epidermal growth factor receptor (Homo sapiens), P00533 [G719C]; conditions: Compound concentration 1000.0 nM
[7] = molecular target: Mitogen-activated protein kinase 8 (Homo sapiens) (UniProt P45983); conditions: Compound concentration 1000.0 nM
Chain of Mitogen-activated protein kinase 8 (Homo sapiens) (P45983 whole entry): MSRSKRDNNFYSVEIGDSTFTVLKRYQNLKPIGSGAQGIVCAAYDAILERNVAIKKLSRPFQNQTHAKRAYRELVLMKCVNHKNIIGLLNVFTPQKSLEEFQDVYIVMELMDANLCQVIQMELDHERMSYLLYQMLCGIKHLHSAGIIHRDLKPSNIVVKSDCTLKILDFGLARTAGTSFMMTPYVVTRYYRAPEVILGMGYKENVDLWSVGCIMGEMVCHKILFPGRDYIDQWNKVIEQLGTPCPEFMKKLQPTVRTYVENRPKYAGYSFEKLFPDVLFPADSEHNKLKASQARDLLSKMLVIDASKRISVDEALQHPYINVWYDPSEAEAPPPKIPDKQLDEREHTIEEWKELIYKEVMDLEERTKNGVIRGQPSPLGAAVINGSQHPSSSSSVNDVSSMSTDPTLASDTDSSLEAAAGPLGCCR

[8] = molecular target: Bone morphogenetic protein receptor type-1A (Homo sapiens) (UniProt P36894); conditions: Compound concentration 1000.0 nM
[9] = molecular target: T1, Dual specificity mitogen-activated protein kinase kinase 6 (Homo sapiens) (UniProt P52564); conditions: Compound concentration 1000.0 nM
T1 sequence (whole entry): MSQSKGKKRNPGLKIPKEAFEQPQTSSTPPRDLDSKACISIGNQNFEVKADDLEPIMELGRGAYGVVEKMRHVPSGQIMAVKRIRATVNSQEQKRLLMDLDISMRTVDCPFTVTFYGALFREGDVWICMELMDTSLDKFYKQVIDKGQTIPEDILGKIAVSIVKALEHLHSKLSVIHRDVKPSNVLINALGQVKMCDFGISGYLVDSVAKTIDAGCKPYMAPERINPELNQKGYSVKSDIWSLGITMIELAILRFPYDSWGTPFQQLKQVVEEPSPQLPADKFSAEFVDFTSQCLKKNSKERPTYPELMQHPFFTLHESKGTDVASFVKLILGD

[10] = molecular target: Phosphorylase b kinase gamma catalytic chain, skeletal muscle/heart isoform (Homo sapiens) (UniProt Q16816); conditions: Compound concentration 1000.0 nM
[11] = molecular target: Mitotic checkpoint serine/threonine-protein kinase BUB1 (Homo sapiens) (UniProt O43683); conditions: Compound concentration 1000.0 nM
Chain of Mitotic checkpoint serine/threonine-protein kinase BUB1 (Homo sapiens) (O43683 whole entry, looked up): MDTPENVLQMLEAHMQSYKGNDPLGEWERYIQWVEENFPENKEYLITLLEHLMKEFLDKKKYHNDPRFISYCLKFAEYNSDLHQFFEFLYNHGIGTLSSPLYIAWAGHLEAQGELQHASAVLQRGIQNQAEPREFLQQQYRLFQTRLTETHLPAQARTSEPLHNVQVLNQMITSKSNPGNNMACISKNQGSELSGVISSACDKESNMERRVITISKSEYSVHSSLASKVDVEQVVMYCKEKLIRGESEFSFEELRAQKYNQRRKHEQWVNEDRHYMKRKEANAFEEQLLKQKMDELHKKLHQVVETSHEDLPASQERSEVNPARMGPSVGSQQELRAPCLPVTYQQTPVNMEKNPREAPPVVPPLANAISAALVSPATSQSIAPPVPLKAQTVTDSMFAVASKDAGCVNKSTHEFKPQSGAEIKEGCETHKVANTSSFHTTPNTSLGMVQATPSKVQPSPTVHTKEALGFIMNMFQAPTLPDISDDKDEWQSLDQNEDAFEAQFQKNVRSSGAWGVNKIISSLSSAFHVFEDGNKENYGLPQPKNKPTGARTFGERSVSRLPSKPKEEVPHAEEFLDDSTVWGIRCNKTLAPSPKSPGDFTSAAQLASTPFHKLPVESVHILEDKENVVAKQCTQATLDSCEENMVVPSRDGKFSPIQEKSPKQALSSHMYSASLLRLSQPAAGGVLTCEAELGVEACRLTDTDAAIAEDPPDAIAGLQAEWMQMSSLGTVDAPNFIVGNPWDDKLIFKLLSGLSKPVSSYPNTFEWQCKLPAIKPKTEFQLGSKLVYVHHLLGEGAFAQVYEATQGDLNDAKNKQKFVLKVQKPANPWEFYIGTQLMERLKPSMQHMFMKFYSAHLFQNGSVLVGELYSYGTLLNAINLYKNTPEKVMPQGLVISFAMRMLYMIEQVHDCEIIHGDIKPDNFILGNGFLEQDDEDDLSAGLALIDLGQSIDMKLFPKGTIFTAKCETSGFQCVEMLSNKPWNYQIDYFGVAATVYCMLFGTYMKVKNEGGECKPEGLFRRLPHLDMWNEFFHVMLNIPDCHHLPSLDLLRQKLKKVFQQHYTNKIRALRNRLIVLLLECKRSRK

[12] = molecular target: Serine/threonine-protein kinase DCLK1 (Homo sapiens) (UniProt O15075); conditions: Compound concentration 1000.0 nM
[13] = tested on: Tyrosine-protein kinase ABL1 (Homo sapiens), P00519 [F317L]; conditions: Compound concentration 1000.0 nM
[14] = molecular target: Serine/threonine-protein kinase PAK 2 (Homo sapiens) (UniProt Q13177); conditions: Compound concentration 1000.0 nM
[15] = molecular target: Fibroblast growth factor receptor 4 (Homo sapiens) (UniProt P22455); conditions: Compound concentration 1000.0 nM
[16] = tested on: Phosphatidylinositol 4,5-bisphosphate 3-kinase catalytic subunit alpha isoform (Homo sapiens), P42336 [I800L]; conditions: Compound concentration 1000.0 nM
[17] = molecular target: Mitogen-activated protein kinase kinase kinase kinase 4 (Homo sapiens) (UniProt O95819); conditions: Compound concentration 1000.0 nM
[18] = tested on: Tyrosine-protein kinase ABL1 (Homo sapiens), P00519 [T315I]; conditions: Compound concentration 1000.0 nM
[19] = molecular target: Myosin-IIIa (Homo sapiens) (UniProt Q8NEV4); conditions: Compound concentration 1000.0 nM
Chain of Myosin-IIIa (Homo sapiens) (Q8NEV4 whole entry): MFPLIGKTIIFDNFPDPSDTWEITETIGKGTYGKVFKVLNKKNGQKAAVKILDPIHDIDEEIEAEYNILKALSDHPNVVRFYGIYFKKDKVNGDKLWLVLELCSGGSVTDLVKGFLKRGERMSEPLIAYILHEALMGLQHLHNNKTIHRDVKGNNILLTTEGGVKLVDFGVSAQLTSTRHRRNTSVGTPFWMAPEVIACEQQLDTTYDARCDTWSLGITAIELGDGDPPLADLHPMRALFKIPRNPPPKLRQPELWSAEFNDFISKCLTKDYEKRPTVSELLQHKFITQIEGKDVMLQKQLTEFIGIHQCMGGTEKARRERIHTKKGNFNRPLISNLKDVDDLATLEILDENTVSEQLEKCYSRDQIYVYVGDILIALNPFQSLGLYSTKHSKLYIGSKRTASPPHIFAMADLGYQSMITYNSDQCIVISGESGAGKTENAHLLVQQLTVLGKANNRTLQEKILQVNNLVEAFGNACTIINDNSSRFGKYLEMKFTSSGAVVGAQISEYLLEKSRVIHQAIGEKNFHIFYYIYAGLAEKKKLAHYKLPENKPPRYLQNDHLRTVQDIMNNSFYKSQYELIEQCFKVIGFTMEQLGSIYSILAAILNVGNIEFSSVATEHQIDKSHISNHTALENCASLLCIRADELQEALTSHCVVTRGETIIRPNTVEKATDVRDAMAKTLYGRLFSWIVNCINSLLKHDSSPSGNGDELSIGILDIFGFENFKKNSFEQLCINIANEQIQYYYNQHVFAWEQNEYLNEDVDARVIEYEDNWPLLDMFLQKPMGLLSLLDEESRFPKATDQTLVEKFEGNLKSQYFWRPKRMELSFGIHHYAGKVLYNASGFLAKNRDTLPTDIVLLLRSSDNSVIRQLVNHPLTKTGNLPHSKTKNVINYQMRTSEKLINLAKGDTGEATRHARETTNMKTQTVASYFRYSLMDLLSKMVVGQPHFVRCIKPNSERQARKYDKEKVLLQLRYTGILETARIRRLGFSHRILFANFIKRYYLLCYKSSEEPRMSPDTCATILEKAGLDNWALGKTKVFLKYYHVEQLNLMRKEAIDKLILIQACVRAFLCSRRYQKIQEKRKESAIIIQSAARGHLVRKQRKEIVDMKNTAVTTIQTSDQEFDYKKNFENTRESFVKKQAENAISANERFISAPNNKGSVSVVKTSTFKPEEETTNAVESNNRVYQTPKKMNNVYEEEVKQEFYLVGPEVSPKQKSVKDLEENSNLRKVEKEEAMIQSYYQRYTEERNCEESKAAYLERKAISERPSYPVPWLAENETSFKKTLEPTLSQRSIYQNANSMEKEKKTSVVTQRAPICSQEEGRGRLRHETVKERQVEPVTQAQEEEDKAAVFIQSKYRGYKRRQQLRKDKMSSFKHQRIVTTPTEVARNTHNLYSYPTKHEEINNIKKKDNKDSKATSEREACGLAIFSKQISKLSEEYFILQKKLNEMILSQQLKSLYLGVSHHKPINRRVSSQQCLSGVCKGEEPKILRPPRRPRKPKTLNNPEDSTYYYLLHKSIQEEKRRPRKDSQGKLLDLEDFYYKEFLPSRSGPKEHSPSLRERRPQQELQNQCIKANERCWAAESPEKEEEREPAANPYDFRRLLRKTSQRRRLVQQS

[20] = tested on: Tyrosine-protein kinase ABL1 (Homo sapiens), P00519 [F317I]; conditions: Compound concentration 1000.0 nM
[21] = molecular target: Serine/threonine-protein kinase 32A (Homo sapiens) (UniProt Q8WU08); conditions: Compound concentration 1000.0 nM
[22] = molecular target: Receptor tyrosine-protein kinase erbB-4 (Homo sapiens) (UniProt Q15303); conditions: Compound concentration 1000.0 nM
[23] = molecular target: Mitogen-activated protein kinase 3 (Homo sapiens) (UniProt P27361); conditions: Compound concentration 1000.0 nM
[24] = molecular target: 5-hydroxytryptamine receptor 1D (Homo sapiens) (UniProt P28221); conditions: Compound concentration 10.0 uM
[25] = molecular target: SRSF protein kinase 2 (Homo sapiens) (UniProt P78362); conditions: Compound concentration 1000.0 nM
[26] = molecular target: Serine/threonine-protein kinase WNK3 (Homo sapiens) (UniProt Q9BYP7); conditions: Compound concentration 1000.0 nM
[27] = molecular target: Platelet-derived growth factor receptor beta (Homo sapiens) (UniProt P09619); conditions: Compound concentration 1000.0 nM
[28] = molecular target: Cyclin-dependent kinase 19 (Homo sapiens) (UniProt Q9BWU1); conditions: Compound concentration 1000.0 nM
[29] = tested on: Receptor-type tyrosine-protein kinase FLT3 (Homo sapiens), P36888 [D835H]; conditions: Compound concentration 1000.0 nM
[30] = molecular target: Bone morphogenetic protein receptor type-1B (Homo sapiens) (UniProt O00238); conditions: Compound concentration 1000.0 nM
[31] = molecular target: T2, Serine/threonine-protein kinase Sgk2 (Homo sapiens) (UniProt Q9HBY8); conditions: Compound concentration 1000.0 nM
T2 sequence (whole entry): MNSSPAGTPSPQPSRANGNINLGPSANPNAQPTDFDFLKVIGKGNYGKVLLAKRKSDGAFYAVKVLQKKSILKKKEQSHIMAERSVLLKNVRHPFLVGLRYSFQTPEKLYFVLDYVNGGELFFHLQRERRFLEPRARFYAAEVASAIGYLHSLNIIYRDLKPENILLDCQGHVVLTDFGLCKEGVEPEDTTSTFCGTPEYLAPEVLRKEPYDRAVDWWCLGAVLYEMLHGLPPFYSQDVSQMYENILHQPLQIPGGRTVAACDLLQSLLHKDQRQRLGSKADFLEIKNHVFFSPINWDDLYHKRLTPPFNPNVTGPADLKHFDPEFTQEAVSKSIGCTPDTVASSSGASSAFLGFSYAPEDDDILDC

[32] = molecular target: Cyclin-dependent kinase 14 (Homo sapiens) (UniProt O94921); conditions: Compound concentration 1000.0 nM
Chain of Cyclin-dependent kinase 14 (Homo sapiens) (O94921 whole entry): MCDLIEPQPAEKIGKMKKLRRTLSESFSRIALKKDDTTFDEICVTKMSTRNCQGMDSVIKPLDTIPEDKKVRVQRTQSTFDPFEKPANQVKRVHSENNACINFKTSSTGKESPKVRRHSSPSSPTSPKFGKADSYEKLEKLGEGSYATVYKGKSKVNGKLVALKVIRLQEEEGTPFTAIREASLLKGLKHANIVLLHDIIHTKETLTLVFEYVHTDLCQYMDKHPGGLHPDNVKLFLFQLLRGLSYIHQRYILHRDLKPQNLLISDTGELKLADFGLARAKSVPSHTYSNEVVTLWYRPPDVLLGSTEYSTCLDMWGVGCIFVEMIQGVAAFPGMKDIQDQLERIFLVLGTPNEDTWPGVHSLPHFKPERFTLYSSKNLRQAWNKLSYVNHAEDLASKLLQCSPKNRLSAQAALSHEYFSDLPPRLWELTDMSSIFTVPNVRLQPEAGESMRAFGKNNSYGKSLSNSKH

[33] = molecular target: Mitogen-activated protein kinase kinase kinase kinase 3 (Homo sapiens) (UniProt Q8IVH8); conditions: Compound concentration 1000.0 nM
[34] = molecular target: Cyclin-dependent kinase 5 (Homo sapiens) (UniProt Q00535); conditions: Compound concentration 1000.0 nM
Chain of Cyclin-dependent kinase 5 (Homo sapiens) (Q00535 whole entry, looked up): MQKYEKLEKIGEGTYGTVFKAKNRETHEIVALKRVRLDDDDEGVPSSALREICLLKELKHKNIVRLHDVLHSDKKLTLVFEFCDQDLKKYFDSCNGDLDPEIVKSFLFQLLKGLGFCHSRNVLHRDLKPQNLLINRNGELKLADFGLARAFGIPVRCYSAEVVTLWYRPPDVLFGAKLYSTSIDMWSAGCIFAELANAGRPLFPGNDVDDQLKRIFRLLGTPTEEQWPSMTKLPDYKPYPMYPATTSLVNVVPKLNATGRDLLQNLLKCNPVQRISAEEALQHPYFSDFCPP

CN(C)C(=O)Cn1cc(-c2nc(C3(c4ccc(-c5cnc(N)nc5)cc4)CC3)no2)cn1 [BI 0153]
inactive: residual activity [1] 97% | residual activity [2] 100% | residual activity [3] 71% | inhibition (Rattus norvegicus) 7.97% | residual activity [4] 86% | residual activity [5] 100% | residual activity [6] 100% | residual activity [7] 78% | residual activity [8] 87% | residual activity [9] 100% | residual activity [10] 97% | residual activity [11] 75% | residual activity [12] 88% | residual activity [13] 55% | residual activity [14] 100% | residual activity [15] 100% | residual activity [16] 91% | residual activity [17] 66% | residual activity [18] 82% | residual activity [19] 100% | residual activity [20] 90% | residual activity [21] 97% | residual activity [22] 100% | residual activity [23] 79% | inhibition [24] -3.06% | residual activity [25] 91% | residual activity [26] 87% | residual activity [27] 94% | residual activity [28] 93% | residual activity [29] 93% | residual activity [30] 99% | residual activity [31] 100% | residual activity [32] 100% | residual activity [33] 89% | residual activity [34] 100%

CN(C)C(=O)Cn1cc(-c2nc([C@@](C)(c3ccc(-c4cnc(N)nc4)cc3)C3CC3)no2)cn1 [BI 665915]
inactive: residual activity [1] 93% | residual activity [2] 95% | residual activity [3] 100% | inhibition (Rattus norvegicus) 1.51% | residual activity [4] 84% | residual activity [5] 100% | residual activity [6] 85% | residual activity [7] 51% | residual activity [8] 100% | residual activity [9] 100% | residual activity [10] 77% | residual activity [11] 75% | residual activity [12] 71% | residual activity [13] 66% | residual activity [14] 90% | residual activity [15] 88% | residual activity [16] 54% | residual activity [17] 90% | residual activity [18] 86% | residual activity [19] 100% | residual activity [20] 100% | residual activity [21] 83% | residual activity [22] 100% | residual activity [23] 100% | inhibition [24] -5.95% | residual activity [25] 100% | residual activity [26] 76% | residual activity [27] 82% | residual activity [28] 100% | residual activity [29] 86% | residual activity [30] 76% | residual activity [31] 83% | residual activity [32] 99% | residual activity [33] 100% | residual activity [34] 100%
